Test results taken from patent US11261435B2, “Chemical-inducible genome engineering technology” (AGENCY FOR SCIENCE, TECHNOLOGY AND RESEARCH, priority 2015, dated 2022).

Columns and labels:
β-catenin = β-catenin transcript (qRT-PCR) and protein (Western blot) levels; type: cell-based, human; details: inducer 6 hours, harvested after another 72 hours
Protocol: Subsequently, they were harvested for analysis after another 72 hours. […] Error bars reflect the standard deviation from at least three biological replicates.
Proteins from whole cell lysates, nuclear fractions, and cytosolic fractions were loaded in equal amounts for SDS PAGE and then transferred onto a nitrocellulose membrane for western blot. The primary antibodies used were α-V5 (Life Technologies, 1:8000 dilution), α-3PGDH (Santa Cruz, 1:1000 dilution), and α-total histone H3 (Abcam, 1:10000 dilution). Primary antibodies were diluted in TBST+5% milk and incubated overnight at 4° C. Secondary antibodies were used at a 1:2500 dilution in TBST+5% milk. Membranes were exposed after addition of WesternBright Sirius HRP substrate (Advansta).

PARP4 gene = assay: Surveyor assay at PARP4 in the HEK293-iCas stable line; type: cell-based, human; details: 1 μM 4HT for 24 hours; after at least two weeks of passaging
Protocol: FIG. 27|Temporal switching of iCas activity. […] To assess the functionality of this cell line, a lentivirus expressing a sgRNA targeting one of the coding exons of the PARP4 gene was generated, and HEK293-iCas cells were infected the virus. After puromycin selection and continuous passaging of the cells for at least two weeks, the cells were treated with or without 1 μM 4HT for 24 hours before harvesting them for analysis using the Surveyor assay. […] When the cells are treated with 4HT, the iCas enzyme is expected to translocate into the nucleus and be able to edit the DNA (these cells are depicted as yellow). However, when the inducer has been removed for more than 72 hours, the iCas protein is expected to translocate out of the nucleus and thus no more editing will be anticipated.

EMX1 locus [1] = assay: Surveyor cleavage assay at the EMX1 locus in HEK293 cells; type: cell-based, human; details: for switching ratio: harvested 96 hours after transfection
Protocol: FIG. 29|Effect of enzyme dosage on the level of background activity, shown as gel images. Different amounts of an iCas-bearing plasmid were transfected together with an EMX1-targeting sgRNA into HEK293 cells. These cells were harvested 96 hours after transfection for the Surveyor cleavage assay. DNA modification was clearly observed when 1 μg of plasmid was utilised, even in the absence of the inducer. […] The switching ratio was improved from 2.83 to 4.16 and 7.96 respectively. […] Arrows indicate the height of the expected cleavage bands.

FANCF locus = assay: Surveyor assay, genome modification at the FANCF locus in HEK293 cells; type: cell-based, human; details: for cleavage bands with 4HT: 100 nM or 1000 nM 4HT for 24 hours
Protocol: FIG. 16|Genome modification at the FANCF locus in HEK293 cells, the data represented as images showing the results and the concentration of gene induction. 24 hours after transfection with Cas9 variant 27, 29, or 30, the cells were either harvested immediately (0 hour time point) or were exposed to 0 nM, 100 nM or 1000 nM 4HT for another 24 hours before genomic DNA was isolated and analysed by the Surveyor assay. Arrows indicate the expected cleavage bands. […] Furthermore, the leakiness in editing activity became more pronounced over time, as indicated by the increase in INDEL frequency from 2.5% to 7.7% for variant 27 and from 2.9% to 3.5% for variant 29.
At 24 hours after transfection with a FANCF-targeting plasmid, cells were treated with or without tamoxifen for another 24 hours before genomic DNA was isolated and analysed by the Surveyor assay (FIG. 10).

EMX1 locus [2] = assay: Illumina deep sequencing of INDELs at the EMX1 locus in HEK293 cells; type: cell-based, human; details: for time at which leaky activity was first detected: without 4-hydroxytamoxifen (0 nM)
WAS locus and ASXL2 = assay: Toggling of iCas activity, Surveyor assay; type: cell-based, human
Protocol: Subsequently, the possibility of toggling the activity of iCas was explored (FIG. 25b). After 1 μM 4-hydroxytamoxifen treatment of HEK293 cells co-transfected with iCas and a first sgRNA targeting the WAS locus, the inducer was removed and 72 hours waiting time was allowed to pass, thereby allowing nuclear-localized iCas protein to exit the nucleus before introducing a second sgRNA targeting a coding exon of ASXL2. The cells were then either treated with 4-hydroxytamoxifen a second time or left untreated.

TAT locus = assay: Surveyor assay at the TAT locus in cancer cell lines; type: cell-based, human; details: 1 μM 4HT; MCF7, DLD1 and HCT116
Protocol: FIG. 18|Genome modification at the TAT locus in different cancer cell lines. The efficiency of iCas was tested in the breast cancer cell line MCF7, as well as in the colorectal cancer cell lines DLD1 and HCT116, the results of which are shown as gel images. Based on the Surveyor assays, genome modifications were detected after the cells were treated with 1 μM 4HT for 6 hours. The INDEL frequency increased when the treatment duration was lengthened to 8 hours for all the cell lines tested. Arrows indicate the expected cleavage bands.
(§1) The editing activity continued to increase with longer treatment durations.

[3] = tested on: known Cas9 off-target sites of the EMX1, VEGFA, FANCF, WAS, and TAT sgRNAs; assay: Surveyor assay at known Cas9 off-target sites; type: cell-based, human
Protocol: The specificity of iCas was tested using seven distinct guide RNAs (gRNAs), the results of which are shown in three-dimensional column graphs. […] (n≥2 replicates for each on-target site; n≥3 replicates for each EMX1 off-target site; n≥1 replicate for other off-target sites.)
To assess the DNA cleavage specificity of iCas, the modification of known Cas9 off-target sites of the EMX1, VEGFA, FANCF, WAS, and TAT sgRNAs was measured.

CTNNB1 locus = assay: Surveyor assay at the CTNNB1 locus in STF3A-Tet-On cells; type: cell-based
Wnt signalling pathway = assay: Wnt-responsive luciferase reporter assay in STF3A-TetOn cells; type: cell-based; details: CTNNB1-targeting sgRNA; chemical 6 hours, harvested after another 72 hours
Protocol: Cells were treated for 6 hours with the respective chemical and then harvested after another 72 hours to allow sufficient time for changes in β-catenin or luciferase protein levels.
The cells were then trypsinised and re-seeded equally into a Corning 96-well flat clear bottom white plate. Samples were assayed for luciferase activity using Dual-Glo Luciferase (Promega) according to manufacturer's instructions. All measurements were taken using the i-control software for Tecan microplate readers. All firefly luciferase measurements were normalized to the corresponding renilla luciferase readings.

[4] = tested on: EMX1 and ADAR1 genomic loci; assay: Multiplex genome editing, Surveyor assay; type: cell-based, human
Protocol: Besides single gene targeting, the ability of iCas to perform multiplex genome engineering was compared with that of intein-Cas9 or split-Cas9. HEK293 cells were co-transfected with a sgRNA targeting EMX1 and another sgRNA targeting a coding exon of ADAR1 (ADAR), and subsequently the extent of genome modification was analysed by the Surveyor assay.

[5] = tested on: VEGFA promoter, WAS, TAT, and FANCF genes; assay: Surveyor assay at VEGFA, WAS, TAT and FANCF genomic loci in HEK293 cells; type: cell-based, human; details: 1 μM 4-HT
Text: as §1

[6] = tested on: EMX1, TAT, and WAS genomic loci; assay: Benchmarking of post-translational control systems by Surveyor assay and deep sequencing; type: cell-based, human
Text: Arrows indicate the expected cleavage bands.

HEK293 cells = assay: Immunohistochemical staining, nuclear localization of (ERT2)2-Cas9-(ERT2)2; type: cell-based, human; details: no 4-HT; 24 hours after transfection
Protocol: To verify the results from the Surveyor assays and deep sequencing experiments, immunohistochemical staining was performed to determine the subcellular localization of the three variants, all of which contained two copies of ERT2 at both termini of the enzyme ((ERT2)2-Cas9-(ERT2)2), with or without 1 μM 4-HT. 24 hours after transfection with plasmids carrying a Cas9 variant and a sgRNA targeting the EMX1, VEGFA, FANCF, WAS, or TAT genomic locus, the cells were either fixed immediately and stained with anti-V5 or were subjected to 6 h or 24 h 4-HT treatment before fixation and staining (FIG. 15). […] Most of the protein translocation occurred within the first 6 hours of 4-hydroxytamoxifen treatment.
Paraformaldehyde-fixed HEK293 cells were first incubated with blocking solution (10% FBS in 0.1M PBS) (JR Scientific Inc) for 30 minutes and then quenched with 3% hydrogen peroxide. Next, the samples were incubated for 2 hours at room temperature or 4° C. overnight with primary antibody specific against the V5 epitope tag (Life Technologies) in blocking solution. Negative controls were incubated with blocking solution without any primary antibody. Subsequently, the samples were thoroughly washed with PBS and then incubated for 1 hour at room temperature with secondary horseradish peroxidase (HRP)-conjugated antibody (GE Healthcare UK Ltd). […]

HEK293-iCas cells = assay: Immunofluorescence localization of iCas in the stable line; type: cell-based, human
Protocol: FIG. 6|Toggling the activity of iCas on and off (a,b) Immunofluorescence images (a) and quantification (b) of iCas in HEK293-iCas cells either untreated (N.A.) or treated with 4-HT and then fixed at 0, 48, or 72 h after removal of 4-HT from the culture medium. DAPI, nuclear staining; V5, antibody specific for V5-tagged Cas9. Scale bar, […]. In (b), at least 300 cells were counted for each sample and time point. Data represent mean±s.d. from three biological replicates. n.s., not significant (P>0.25); **P<0.001, Student's t-test. (c) Surveyor assay detection of genome modification in HEK293 cells after two cycles of transfection and 4-HT treatment (4-HT 1 and 4-HT 2). A sgRNA targeting the WAS locus was transfected first, and a sgRNA targeting the ASXL2 locus second. Arrows indicate the expected cleavage bands.
In principle, a conditional system such as iCas should allow users to generate stable cell lines and induce its activity whenever needed. […] The cell line was verified to be functional (FIG. 25a) and monitored the intracellular localization of iCas by immunofluorescence (FIG. 6a). Without 4-hydroxytamoxifen, most cells produced an iCas protein that was localized in the cytoplasm; only 15% of the cells contained nuclear-localized protein. […] The inducer was then washed away and the cells immunostained with anti-V5 antibody at 48 and 72 hours after removal of 4-hydroxytamoxifen.

[7] = absence of 4HT, harvested 24 hours after transfection (0 hour time point)

Substance: variant 30: NL-TGGGS-ERT2-PRGGS-ERT2-TPESGA-Cas9-NLS-ERT2-PAGGGS-ERT2 (SEQ ID NO. 249); hereafter referred to as iCas
- amount of β-catenin protein relative to the original level (β-catenin; co-transfected with β-catenin-targeting sgRNA, Western blot): less than 20%
- transcript level of β-catenin (β-catenin; β-catenin-targeting sgRNA, qRT-PCR): significant decrease
- cleavage bands with or without 4HT in the stable line (PARP4 gene): Cleavage bands (indicated by arrows) were observed for the treated cells, but not for the untreated cells
- switching ratio (EMX1 locus [1]; 0.25 μg plasmid): 7.96
- switching ratio (EMX1 locus [1]; 0.5 μg plasmid): 4.16
- switching ratio (EMX1 locus [1]; 1 μg of plasmid): 2.83
- duration of 4-hydroxytamoxifen treatment at which cleavage activity appears to plateau (EMX1 locus [1]; Surveyor assay): around 8 hours
- time point at which leaky activity was observed (EMX1 locus [1]; without 4-hydroxytamoxifen (0 nM), Surveyor assay): 48 h
- cleavage bands with 4HT (FANCF locus): strong cleavage bands were observed
- cleavage band in the absence of 4HT (FANCF locus; no 4HT): no cleavage band was detected
- duration of 4-hydroxytamoxifen treatment after which a low level of DNA editing was revealed (EMX1 locus [2]): 2 h
- time at which leaky activity was first detected (EMX1 locus [2]): 16 h
- cleavage after two cycles of transfection, treated twice with the inducer (WAS locus and ASXL2; 1 μM 4-hydroxytamoxifen after first and second transfection): cleavage activity was readily observed at both targeted loci
- cleavage after two cycles of transfection, inducer after the first transfection only (WAS locus and ASXL2; 4-hydroxytamoxifen after the first but not the second transfection): cleavage was detected only at the WAS locus
- duration of 4HT treatment after which genome modifications were detected (TAT locus): 6 h
- cleavage at the two EMX1 off-target sites ([3]; EMX1 sgRNA, 1 μM 4-hydroxytamoxifen up to 24 hours): did not yield any measurable cleavage
- duration of 4HT treatment after which off-target effects were observed ([3]; gRNAs targeting VEGFA promoter first site, TAT locus, FANCF locus): 16 h
- duration of inducer treatment until modification of the target locus (CTNNB1 locus; 1 μM 4-hydroxytamoxifen or 1 μg/ml doxycycline): ≤ 6 h
- cleavage bands in the absence of 4-hydroxytamoxifen (CTNNB1 locus; any time point): No cleavage bands were observed
- luciferase activity (Wnt signalling pathway): significant decrease in luciferase activity
- editing of two genomic loci simultaneously ([4]; 12 hours of chemical treatment): generated INDELs at both the EMX1 and ADAR1 genomic loci
- editing of two genomic loci simultaneously ([4]; 24 hours of chemical treatment): produced more genome modification than at 12 hours
- duration of 4-hydroxytamoxifen treatment until nuclease activity, all loci tested [5]: ≤ 4 h
- switching ratio compared with intein-Cas9 ([6]; Surveyor assay, EMX1 and WAS loci): significantly higher ratios than intein-Cas9
- induction time needed to reach the INDEL frequency of split-Cas9 after approximately 96 hours ([6]; deep sequencing): 12 h
- background activity without the inducer ([6]; no inducer): comparable levels of leakiness
- nuclear localization in the absence of 4-hydroxytamoxifen, versus variant 27 or variant 29 (HEK293 cells): significantly less nuclear localization
- cells containing nuclear-localized protein (HEK293-iCas cells; 24 hour treatment with 4-hydroxytamoxifen): 48%
- cells containing nuclear-localized protein (HEK293-iCas cells; 72 hours after removal of 4-hydroxytamoxifen): not significantly different from that of the pre-induction state
- cells containing nuclear-localized protein (HEK293-iCas cells; without 4-hydroxytamoxifen): 15%

Substance: variant 29: NLS-TG-ERT2-GGSPRGGS-ERT2-TPESGA-Cas9-NLS-ERT2-PAG-ERT2 (SEQ ID NO. 248)
- duration of 4-hydroxytamoxifen treatment at which cleavage activity appears to plateau (EMX1 locus [1]; Surveyor assay): around 8 hours
- INDEL frequency (FANCF locus; 0 nM 4HT for another 24 hours): 3.5%
- cleavage bands with 4HT (FANCF locus): strong cleavage bands were observed
- INDEL frequency (FANCF locus; [7]): 2.9%
- duration of 4-hydroxytamoxifen treatment after which a low level of DNA editing was revealed (EMX1 locus [2]): 2 h
- time at which leaky activity was first detected (EMX1 locus [2]): 2 h

Substance: variant 27: NLS-TGGGS-ERT2-PRGGS-ERT2-TPESGA-Cas9-NLS-ERT2-PAG-ERT2 (SEQ ID NO. 246)
- duration of 4-hydroxytamoxifen treatment at which cleavage activity appears to plateau (EMX1 locus [1]; Surveyor assay): around 8 hours
- INDEL frequency (FANCF locus; 0 nM 4HT for another 24 hours): 7.7%
- cleavage bands with 4HT (FANCF locus): strong cleavage bands were observed
- INDEL frequency (FANCF locus; [7]): 2.5%
- duration of 4-hydroxytamoxifen treatment after which a low level of DNA editing was revealed (EMX1 locus [2]): 2 h
- time at which leaky activity was first detected (EMX1 locus [2]): 6 h

Substance: 4-hydroxytamoxifen [4HT, reference compound]
- 4HT concentration for maximum activation of the inducible genome editing system (EMX1 locus [1]; 10, 100, 1000 nM tested, Surveyor assay and deep sequencing): at least 100 nM
